Test results published in patent US4138554A, “7-[D-α-(4-Hydroxy-1,5-naphthyridine-3-carboxamido)-α-phenyl (and p-hydroxyphenyl)acetamido]-3-carbamoyloxymethyl-3-cephem-4-carboxylic acids” (priority 1977, dated 1979).
Read-outs that look alike come from different tables or passages of the source.

What was measured:
Pseudomonas (6 strains) = assay: Mean % relative activity (MIC) vs sulbenicillin, Pseudomonas (6 strains); format: cell-based; settings: for Mean % Relative Activity (SPBC = 100%): P. aerug. (6 strains)
Experimental: (§1) Minimum inhibitory concentrations (MIC) of BB-S520 were determined by serial two-fold agar dilution method using Steers' apparatus on Meuller-Hinton agar plate against 31 test organisms for the primary screening and also against 61 strains of Pseudomonas aeruginosa for the secondary evaluation. The results are shown in Table 1 and Table 2 along with those of BB-S514 and sulbenicillin.
(§2) Minimum inhibitory concentrations (MIC) of cephalosporins in the present study were determined by serial two-fold agar dilution method using Steers' apparatus on Mueller-Hinton agar plate against 31 test organisms for the primary screening and also against 61 strains of Pseudomonas aeruginosa for the secondary evaluation.

P. morganii = assay: MIC by serial two-fold agar dilution (Mueller-Hinton agar), P. morganii; format: cell-based; settings: Morganella morganii, read-out: MIC
Experimental: as §1, §2

Ps. aeruginosa A9843 = assay: Median curative dose in mice, infection with Ps. aeruginosa; format: in vivo; settings: Pseudomonas aeruginosa, A9843, sc
Text: (§3) Median Curative Dose in Mgm./Kg.
(§4) Upon Subcutaneous Injection in Mice

E. coli Juhl = assay: Median curative dose in mice, infection with E. coli Juhl; format: in vivo; settings: Escherichia coli, sc
Text: as §3, §4

K. pneumoniae = assay: MIC by serial two-fold agar dilution (Mueller-Hinton agar), K. pneumoniae; format: cell-based; settings: Klebsiella pneumoniae
Experimental: as §1, §2

[1] = system: Gram-positive (6 strains); assay: Mean % relative activity (MIC) vs sulbenicillin, Gram-positive (6 strains); format: cell-based; settings: for Mean % Relative Activity (SPBC = 100%): G (+) (6 strains)
Experimental: as §1, §2

S. aureus = assay: MIC by serial two-fold agar dilution (Mueller-Hinton agar), S. aureus; format: cell-based; settings: Staphylococcus aureus
Experimental: as §1, §2

P. vulgaris = assay: MIC by serial two-fold agar dilution (Mueller-Hinton agar), P. vulgaris; format: cell-based; settings: Proteus vulgaris, read-out: MIC
Experimental: as §1, §2

E. coli = assay: MIC by serial two-fold agar dilution (Mueller-Hinton agar), E. coli; format: cell-based; settings: Escherichia coli, read-out: MIC
Experimental: as §1, §2

S. aureus Smith = assay: Median curative dose in mice, infection with S. aureus Smith; format: in vivo; settings: Staphylococcus aureus, sc
Text: as §3, §4

S. enteritidis = assay: MIC by serial two-fold agar dilution (Mueller-Hinton agar), S. enteritidis; format: cell-based; settings: Salmonella enterica, read-out: MIC
Experimental: as §1, §2

Klebsiella sp. = assay: MIC by serial two-fold agar dilution (Mueller-Hinton agar), Klebsiella sp.; format: cell-based; settings: read-out: MIC
Experimental: as §1, §2

P. mirabilis = assay: MIC by serial two-fold agar dilution (Mueller-Hinton agar), P. mirabilis; format: cell-based; settings: Proteus mirabilis, read-out: MIC
Experimental: as §1, §2

[2] = system: Gram-negative (19 strains); assay: Mean % relative activity (MIC) vs sulbenicillin, Gram-negative (19 strains); format: cell-based; settings: for Mean % Relative Activity (SPBC = 100%): G (-) (19 strains)
Experimental: as §1, §2

E. cloacae = assay: MIC by serial two-fold agar dilution (Mueller-Hinton agar), E. cloacae; format: cell-based; settings: Enterobacter cloacae
Experimental: as §1, §2

S. marcescens = assay: MIC by serial two-fold agar dilution (Mueller-Hinton agar), S. marcescens; format: cell-based; settings: Serratia marcescens, read-out: MIC
Experimental: as §1, §2

P. aeruginosa = assay: MIC by serial two-fold agar dilution (Mueller-Hinton agar), P. aeruginosa, primary screening; format: cell-based; settings: Pseudomonas aeruginosa, read-out: MIC
Experimental: as §1, §2

[3] = mice, P. aerug. A9843 infection, Table 5, read-out: PD50

NC(=O)OCC1=C(C(=O)O)N2C(=O)C(NC(=O)[C@H](NC(=O)c3cnc4cccnc4c3O)c3ccccc3)[C@H]2SC1 (stereo partly drawn) [BB-S520, Sodium 7-[D-α-(4-hydroxy-1,5-naphthyridine-3-carboxamido)-α-phenylacetamido]-3-carbamoyloxymethyl-3-cephem-4-carboxylate]
Mean % Relative Activity (SPBC = 100%) (Pseudomonas (6 strains); lot 1, Table 5): 635%
Mean % Relative Activity (SPBC = 100%) (Pseudomonas (6 strains); lot 2, Table 5): 712%
Mean % Relative Activity (Sulbenicillin = 100%) (Pseudomonas (6 strains); Pseudomonas (6 strains), from geometric means of MICs in Table 1): 635%
MIC (P. morganii; P. morganii, Table 1): > 100 µg/mL
ED50 (Ps. aeruginosa A9843; [3]): 37 mg/kg
ED50 (Ps. aeruginosa A9843; subcutaneous injection in mice, Ps. aeruginosa, Table 4, read-out: Median Curative Dose (PD50)): 37 mg/kg
ED50 (E. coli Juhl; subcutaneous injection in mice, E. coli Juhl, Table 4, read-out: Median Curative Dose (PD50)): 1.8 mg/kg
MIC (K. pneumoniae; K. pneumoniae, Table 1): 1.6 µg/mL
Mean % Relative Activity (SPBC = 100%) ([1]; lot 1, Table 5): 200%
Mean % Relative Activity (SPBC = 100%) ([1]; lot 2, Table 5): 141%
Mean % Relative Activity (Sulbenicillin = 100%) ([1]; Gram-positive (6 strains), from geometric means of MICs in Table 1): 200%
MIC (S. aureus; S. aureus BX-1633, Table 1, read-out: MIC): 0.8 µg/mL
MIC (S. aureus; S. aureus Smith (1st line), Table 1, read-out: MIC): 0.8 µg/mL
MIC (S. aureus; S. aureus Smith (2nd line), Table 1, read-out: MIC): 1.6 µg/mL
MIC (S. aureus; S. aureus, unnamed strain (4th S. aureus line), Table 1, read-out: MIC): 25 µg/mL
MIC (S. aureus; S. aureus, unnamed strain (5th S. aureus line), Table 1, read-out: MIC): 1.6 µg/mL
MIC (S. aureus; S. aureus, unnamed strain (6th S. aureus line), Table 1, read-out: MIC): 50 µg/mL
MIC (P. vulgaris; P. vulgaris, Table 1): 100 µg/mL
MIC (E. coli; E. coli Juhl, Table 1): 1.6 µg/mL
MIC (E. coli; E. coli NIHJ, Table 1): 0.05 µg/mL
MIC (E. coli; E. coli, unnamed strain (4th E. coli line), Table 1): 0.8 µg/mL
MIC (E. coli; E. coli, unnamed strain (5th E. coli line), Table 1): 100 µg/mL
MIC (E. coli; E. coli, unnamed strain (6th E. coli line), Table 1): 3.1 µg/mL
MIC (E. coli; E. coli, unnamed strain (7th E. coli line), Table 1): 100 µg/mL
MIC (E. coli; E. coli, unnamed strain (8th E. coli line), Table 1): 3.1 µg/mL
MIC (E. coli; E. coli, unnamed strain (9th E. coli line), Table 1): 0.4 µg/mL
ED50 (S. aureus Smith; subcutaneous injection in mice, S. aureus Smith, Table 4, read-out: Median Curative Dose (PD50)): 0.8 mg/kg
MIC (S. enteritidis; S. enteritidis, Table 1): 3.1 µg/mL
MIC (Klebsiella sp.; Klebsiella sp., Table 1): 3.1 µg/mL
MIC (P. mirabilis; P. mirabilis, Table 1): 0.4 µg/mL
Mean % Relative Activity (SPBC = 100%) ([2]; lot 1, Table 5): 179%
Mean % Relative Activity (SPBC = 100%) ([2]; lot 2, Table 5): 108%
Mean % Relative Activity (Sulbenicillin = 100%) ([2]; Gram-negative (19 strains), from geometric means of MICs in Table 1): 179%
MIC (E. cloacae; E. cloacae (1st line), Table 1): 12.5 µg/mL
MIC (E. cloacae; E. cloacae (2nd line), Table 1): 50 µg/mL
MIC (E. cloacae; E. cloacae (3rd line), Table 1): 25 µg/mL
MIC (S. marcescens; S. marcescens, Table 1): > 100 µg/mL
MIC (P. aeruginosa; P. aeruginosa (1st line), Table 1): 1.6 µg/mL
MIC (P. aeruginosa; P. aeruginosa (2nd line), Table 1): 3.1 µg/mL
MIC (P. aeruginosa; P. aeruginosa (3rd line), Table 1): 3.1 µg/mL
MIC (P. aeruginosa; P. aeruginosa (4th line), Table 1): 12.5 µg/mL
MIC (P. aeruginosa; P. aeruginosa (5th line), Table 1): 1.6 µg/mL
MIC (P. aeruginosa; P. aeruginosa (6th line), Table 1): 1.6 µg/mL

NC(=O)OCC1=C(C(=O)O)N2C(=O)C(NC(=O)[C@H](NC(=O)c3cnc4cccnc4c3O)c3ccc(O)cc3)C2SC1 (single isomer, unassigned) [BB-S530, Sodium 7-[D-(-)-α-(4-hydroxy-1,5-naphthyridine-3-carboxamido)-α-(p-hydroxyphenyl)acetamido]-3-carbamoyloxymethyl-3-cephem-4-carboxylate]
Mean % Relative Activity (SPBC = 100%) (Pseudomonas (6 strains); Table 5): 1425%
MIC (P. morganii; P. morganii A9553, Table 6): > 100 µg/mL
ED50 (Ps. aeruginosa A9843; [3]): 9.3 mg/kg
ED50 (E. coli Juhl; mice, E. coli Juhl infection, Table 5, read-out: PD50): 1.8 mg/kg
MIC (K. pneumoniae; K. pneumoniae A9977, Table 6): 1.6 µg/mL
Mean % Relative Activity (SPBC = 100%) ([1]; Table 5): 141%
MIC (S. aureus; S. aureus BX-1633 A9606, Table 6, read-out: MIC): 3.1 µg/mL
MIC (S. aureus; S. aureus Smith A9537, Table 6, read-out: MIC): 1.6 µg/mL
MIC (S. aureus; S. aureus Smith A15907, Table 6): 25 µg/mL
MIC (S. aureus; S. aureus Smith A20239, Table 6, read-out: MIC): 3.1 µg/mL
MIC (S. aureus; S. aureus Smith A20240, Table 6, read-out: MIC): 3.1 µg/mL
MIC (S. aureus; S. aureus Smith A20701, Table 6, read-out: MIC): 25 µg/mL
MIC (P. vulgaris; P. vulgaris A9539, Table 6): > 100 µg/mL
MIC (E. coli; E. coli A9435, Table 6): 3.1 µg/mL
MIC (E. coli; E. coli A9844, Table 6): 0.4 µg/mL
MIC (E. coli; E. coli A10664, Table 6): 0.2 µg/mL
MIC (E. coli; E. coli A20366, Table 6): > 100 µg/mL
MIC (E. coli; E. coli A20520, Table 6): 3.1 µg/mL
MIC (E. coli; E. coli A20732, Table 6): 3.1 µg/mL
MIC (E. coli; E. coli A20898, Table 6): 100 µg/mL
MIC (E. coli; E. coli Juhl A15119, Table 6): 1.6 µg/mL
MIC (E. coli; E. coli NIHJ, Table 6): 1.6 µg/mL
ED50 (S. aureus Smith; mice, S. aureus Smith infection, Table 5, read-out: PD50): 1.3 mg/kg
MIC (S. enteritidis; S. enteritidis A9531, Table 6): 0.8 µg/mL
MIC (Klebsiella sp.; Klebsiella sp. A20452, Table 6): 1.6 µg/mL
MIC (P. mirabilis; P. mirabilis A9900, Table 6): 6.3 µg/mL
Mean % Relative Activity (SPBC = 100%) ([2]; Table 5): 108%
MIC (E. cloacae; E. cloacae A9656, Table 6): 12.5 µg/mL
MIC (E. cloacae; E. cloacae A9657, Table 6): 100 µg/mL
MIC (E. cloacae; E. cloacae A9659, Table 6): 100 µg/mL
MIC (S. marcescens; S. marcescens A20019, Table 6): > 100 µg/mL
MIC (P. aeruginosa; P. aeruginosa A9843, Table 6): 1.6 µg/mL
MIC (P. aeruginosa; P. aeruginosa A9930, Table 6): 0.8 µg/mL
MIC (P. aeruginosa; P. aeruginosa A15150, Table 6): 1.6 µg/mL
MIC (P. aeruginosa; P. aeruginosa A20229, Table 6): 1.6 µg/mL
MIC (P. aeruginosa; P. aeruginosa A20717, Table 6): 3.1 µg/mL
